In PubChem BioAssay AID2286 (Southern Research Specialized Biocontainment Screening …, 2010) one finds CC50, viability and minimum viability data, which are given here for 37 molecules.

Calls of active or inactive are those of the source.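 The calls were made as follows: active = minimum cell viability of 80% or lower across the dose range, counted as toxic; inactive = minimum cell viability above 80%.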 A value given as a limit tells only on which side of the number the result lay.

Assay [1] concerns MAGI-CCR5 cells viability, CellTiter-Glo ATP luminescence. Put plainly: viability loss in fusion assay cells – cell-based, MAGI and MAGI-HeLa co-culture, cytotoxicity control for HIV-1 fusion inhibitor project, dose response (AID 2286).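 Also: cells exposed to compound for at least 64 h before ATP readout.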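 As to minimum viability: 100% = median of DMSO vehicle wells with no ATP signal meaning 0%.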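 As to viability: 100% = median of DMSO vehicle wells with no ATP signal meaning 0%.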
Assay in assay [2]: as above
As to conditions: MAGI-CCR5 cells viability, CellTiter-Glo ATP luminescence; for minimum viability: measured here: MAGI minimum viability across doses.

Setting [3] is: measured here: MAGI + HeLa-R5-16 co-culture viability.
The mark [4] stands for this setting: MAGI-HeLa co-culture viability, at 50 µM, stronger effect = lower value.
The mark [5] stands for this setting: at 1.56 µM, stronger effect = lower value.
The mark [6] stands for this setting: at 3.13 µM, stronger effect = lower value.

Regarding `CSc1nc(SCC(=O)O)c2sc3nc(-c4ccccc4)c4c(c3c2n1)CCC4`, the 50% cytotoxic concentration (CC50) in assay [1] (setting [3]) was > 50 µM. Besides, the viability in assay [2] (setting [4]) was 70.5%; in assay [2] (at 25 µM (top of the series)) it was 99.5% (inactive). In assay [2] (setting [5]), the minimum viability amounted to 88.2%.
Regarding `O=[N+]([O-])c1cc(Cl)cc(/C=N/NC(=S)Nc2ccc(S(=O)(=O)N3CCOCC3)cc2)c1O`, the CC50 in assay [1] (setting [3]) was > 50 µM. Also, the viability in assay [2] (setting [4]) is 65.6%; in assay [2] (at 50 µM (top of the series)) it was 98.8% (inactive). Besides, in assay [2] (setting [6]), the minimum viability came out at 89.3%.
Taken in the same sequence, the figures for `COc1ccc(/C=C2/SC(=S)N(CC(=O)O)C2=O)cc1OCc1ccc(Cl)cc1` were > 50 µM, 67%, 104% (inactive) and 85.8%.
In the case of `CCOC(=O)c1sc2nc3c(SCCC(=O)O)cc(C(=O)c4cc(OC)ccc4O)cn3c(=O)c2c1C`, the CC50 in assay [1] (setting [3]) was > 50 µM. Also, the viability in assay [2] (setting [4]) worked out at 65.6%. In assay [2] (at 50 µM, stronger effect = lower value), this molecule showed a minimum viability of 68.7%.
Take `COc1cc(/C=C(\C#N)c2nc3ccccc3s2)cc([N+](=O)[O-])c1O`: the CC50 in assay [1] was 38.1 µM. In assay [2] (setting [4]), the viability was 101%. This molecule registered a minimum viability in assay [2] (at 50 µM, stronger effect = lower value) of 43.3%.
As to `O=S(=O)(Nc1nc(-c2sccc2Cl)cs1)c1cc(Cl)ccc1Cl`, in assay [1] (setting [3]), the CC50 is > 50 µM. In addition, in assay [2] (setting [4]), the viability was 70.8%. In assay [2] (at 50 µM, stronger effect = lower value), this molecule gave a minimum viability of 47.7%.
Turning to `O=C(O)CCCCCN1C(=O)/C(=C\c2cn(-c3ccccc3)nc2-c2cccs2)SC1=S`, the CC50 was 44.3 µM in assay [1] and > 50 µM in assay [1] (setting [3]). For the same molecule, in assay [2] (setting [4]), the viability worked out at 54.7%. Besides, in assay [2] (at 50 µM, stronger effect = lower value), the minimum viability worked out at 47.2%.
Taken in the same sequence, the figures for `COc1ccc(S(=O)(=O)Nc2ccccc2C(=O)Nc2nc(-c3ccc(F)cc3)cs2)cc1OC` were 6.51 µM, 14.8 µM, 27.5% and 18.4%.
For `COc1cc(/C=C2\SC(=O)N(Cc3ccc(F)cc3)C2=O)cc([N+](=O)[O-])c1O` the same measures were 28.7 µM, > 50 µM, 65.7% and 41.9%.
Take `O=c1cc(-c2ccccc2)nc2c(-c3ccccc3)c(C(F)(F)F)[nH]n12`: in assay [1], the CC50 is 49.1 µM. The viability in assay [2] (setting [4]) came to 81.4%. The molecule further gave a minimum viability in assay [2] (at 50 µM, stronger effect = lower value) of 53.2%.
As to `O=C(NC(=S)Nc1ccccc1C(=O)O)c1ccc(-c2ccc(Br)cc2)o1`, the CC50 in assay [1] (setting [3]) is > 50 µM. Also, the viability in assay [2] (setting [4]) is 59.6%. Further, the minimum viability in assay [2] (at 50 µM, stronger effect = lower value) was 77.9%.
As to `COc1cccc(OCCOc2ccc(/C=C3\C(=N)N4N=C(S(C)(=O)=O)SC4=NC3=O)cc2OC)c1`, in assay [1] (setting [3]), the CC50 worked out at 35.8 µM. The figures for the viability in assay [2] (setting [4]) and in assay [2] (at 50 µM (top of the series)) were 38% and 97.2% (inactive), respectively. For the same molecule, in assay [2] (setting [6]), the minimum viability was 91.2%.
Turning to `CCc1oc2ccccc2c1C(=O)c1cc(Br)c(O)c(Br)c1`, the figures for the CC50 in assay [1] and in assay [1] (setting [3]) were 43.5 µM and > 50 µM, respectively. In addition, the viability in assay [2] (setting [4]) was found to be 52.7%. In assay [2] (at 50 µM, stronger effect = lower value), the minimum viability is 38.8%.
Regarding `O=C(O)c1ccc(N2C(=O)/C(=C/c3ccc(-c4ccc([N+](=O)[O-])cc4)o3)C=C2c2ccccc2)cc1`, the 50% cytotoxic concentration (CC50) in assay [1] was 35.4 µM; in assay [1] (setting [3]) it was > 50 µM. Moreover, the viability in assay [2] (setting [4]) was 65.7%. The molecule also registered a minimum viability in assay [2] (at 25 µM, stronger effect = lower value) of 46.8%.
Take `COc1cc([N+](=O)[O-])cc(/C=C2/SC(=S)N(Cc3ccccc3)C2=O)c1O`: the half-maximal cytotoxic concentration (CC50) is 8.44 µM in assay [1] and 29.2 µM in assay [1] (setting [3]). Besides, in assay [2] (setting [4]), the viability was determined as 16.4%. The minimum viability in assay [2] (at 25 µM, stronger effect = lower value) worked out at 5.81%.
For the molecule `COc1cc([N+](=O)[O-])cc(/C=N/NC(=O)c2cc(-c3ccccc3)nc3ccccc23)c1O`, the CC50 in assay [1] (setting [3]) is > 50 µM. Further, in assay [2] (setting [4]), the viability came to 56.7%. Further, in assay [2] (at 25 µM, stronger effect = lower value), the minimum viability was 53.9%.
For `O=C(N/N=C/c1cc(Cl)cc([N+](=O)[O-])c1O)NC12CC3CC(CC(C3)C1)C2`, the CC50 in assay [1] is 48.7 µM; in assay [1] (setting [3]), > 50 µM. In addition, the viability in assay [2] (setting [4]) came out at 55.7%. This molecule also registered a minimum viability in assay [2] (at 50 µM, stronger effect = lower value) of 49.2%.
Regarding `O=C(O)C1Nc2ccc(Br)cc2C2C=CCC12` (stereo unspecified), the 50% cytotoxic concentration (CC50) in assay [1] (setting [3]) was > 50 µM. The values for the viability in assay [2] (setting [4]) and in assay [2] (at 50 µM (top of the series)) were 74.1% and 98% (inactive), respectively. The molecule further came in with a minimum viability in assay [2] (at 0.2 µM, stronger effect = lower value) of 90.6%.
Turning to `CCc1ccc(S(=O)(=O)/N=C2\C=C(NS(=O)(=O)c3ccccc3)C(=O)c3ccccc32)cc1`, the 50% cytotoxic concentration (CC50) in assay [1] (setting [3]) is > 50 µM. Besides, the viability in assay [2] (setting [4]) was 80%. For the same molecule, the minimum viability in assay [2] (at 50 µM, stronger effect = lower value) turned out to be 74.4%.
Turning to `Nc1c(S(=O)(=O)O)cc(NC(=O)c2ccccc2)c2c1C(=O)c1ccccc1C2=O`, in assay [1] (setting [3]), the half-maximal cytotoxic concentration (CC50) was determined as 49.2 µM. In addition, the values for the viability in assay [2] (setting [4]) and in assay [2] (at 50 µM (top of the series)) were 50.2% and 103% (inactive), respectively. In assay [2] (at 25 µM, stronger effect = lower value), this molecule registered a minimum viability of 89.2%.
In the case of `O=C(O)CN1C(=O)/C(=C\c2cc(Br)ccc2OCc2ccc(Cl)cc2Cl)SC1=S`, the CC50 in assay [1] (setting [3]) worked out at 25.6 µM. Also, the viability in assay [2] (setting [4]) was 37.6%; in assay [2] (at 50 µM (top of the series)) it was 93.8% (inactive). In assay [2] (at 50 µM, stronger effect = lower value), this molecule had a minimum viability of 93.8%.
In the case of `COc1cc(/C=C2\SC(=O)N(Cc3ccc(Cl)cc3)C2=O)cc([N+](=O)[O-])c1O`, the half-maximal cytotoxic concentration (CC50) in assay [1] is 20.8 µM; in assay [1] (setting [3]) it was > 50 µM. Besides, the viability in assay [2] (setting [4]) was determined as 72.8%. Further, the minimum viability in assay [2] (at 50 µM, stronger effect = lower value) is 38.6%.
Take `CCS(=O)(=O)C1=NN2C(=N)/C(=C\c3ccc(OCCOc4cccc(OC)c4)c(OC)c3)C(=O)N=C2S1`: the CC50 in assay [1] (setting [3]) was determined as 40.1 µM. Besides, the values for the viability in assay [2] (setting [4]) and in assay [2] (at 50 µM (top of the series)) were 50% and 83.7% (inactive), respectively. This molecule had a minimum viability in assay [2] (at 50 µM, stronger effect = lower value) of 83.7%.
Consider `O=[N+]([O-])c1cc([N+](=O)[O-])c2oc(-c3ccccc3)c(Br)c2c1O`, for which the cytotoxic concentration (CC50) in assay [1] is 22.5 µM; in assay [1] (setting [3]), > 50 µM. Besides, the viability in assay [2] (setting [4]) is 57.6%. This molecule returned a minimum viability in assay [2] (at 50 µM, stronger effect = lower value) of 34.5%.
In the case of `CCC(C)(C)C1CCc2c(sc(NC(=O)c3ccccc3C(=O)O)c2C#N)C1` (stereo unspecified), in assay [1] (setting [3]), the CC50 is > 50 µM. Besides, the viability in assay [2] (setting [4]) came to 50.7%. The same molecule showed a minimum viability in assay [2] (at 50 µM, stronger effect = lower value) of 55.5%.
With `COc1cc(/C=C2/SC(=S)N(Cc3ccccc3)C2=O)ccc1OCC(=O)O`, the CC50 in assay [1] is 30.2 µM; in assay [1] (setting [3]) it was > 50 µM. In addition, the viability in assay [2] (setting [4]) amounted to 79%. Also, the minimum viability in assay [2] (at 50 µM, stronger effect = lower value) was 4.94%.
Taken in the same sequence, the figures for `COc1cc(/C=C2\SC(=S)NC2=O)ccc1OS(=O)(=O)c1ccccc1` were 17.9 µM, 40.7 µM, 35.9% and 24.8%.
For `COc1ccc(-c2csc(NC(=O)c3ccccc3NS(=O)(=O)c3ccc(C)cc3)n2)cc1` the same measures were 4.93 µM, 10.9 µM, 24.4% and 20%.
For `CCOc1cc(/C=C2/C(=N)N3C(=NC2=O)SN=C3S(C)(=O)=O)ccc1OS(=O)(=O)c1ccccc1`, the CC50 in assay [1] (setting [3]) was > 50 µM. Also, the viability in assay [2] (setting [4]) is 68.9%; in assay [2] (at 50 µM (top of the series)), 81.5% (inactive). For the same molecule, the minimum viability in assay [2] (at 50 µM, stronger effect = lower value) is 81.5%.
`COc1ccc2c(c1)cc(C(=O)N/N=C/c1c(O)c(C(=O)O)cc3ccccc13)n2C`: the CC50 in assay [1] (setting [3]) is > 50 µM. Further, the viability in assay [2] (setting [4]) was 75.1%; in assay [2] (at 50 µM (top of the series)), 95.6% (inactive). Besides, in assay [2] (setting [5]), the minimum viability was found to be 89.5%.
As for `Oc1c(Cl)cc(Cl)c(Cl)c1Cc1c(O)c(Cl)cc(Cl)c1Cl`, the cytotoxic concentration (CC50) is 1.96 µM in assay [1] and 7.05 µM in assay [1] (setting [3]). Also, the viability in assay [2] (setting [4]) is 23%. Also, the minimum viability in assay [2] (at 50 µM, stronger effect = lower value) worked out at 15.7%.
Regarding `O=C1NC(=Nc2ccccc2Cl)S/C1=C\c1cccc([N+](=O)[O-])c1O`, the 50% cytotoxic concentration (CC50) in assay [1] (setting [3]) is > 50 µM. The viability in assay [2] (setting [4]) turned out to be 73.6%. The molecule further came in with a minimum viability in assay [2] (at 50 µM, stronger effect = lower value) of 72.6%.
Take `CCn1nc([N+](=O)[O-])c(C(C#N)c2nc3cc(C(F)(F)F)ccc3s2)c(Cl)c1=O` (stereo unspecified): the half-maximal cytotoxic concentration (CC50) in assay [1] is 27.8 µM. This molecule also gave a minimum viability in assay [2] (at 50 µM, stronger effect = lower value) of 22.2%.
For `Cc1ccc(C)c(S(=O)(=O)/N=C2\C=C(NS(=O)(=O)c3ccccc3)C(=O)c3ccccc32)c1`, the CC50 in assay [1] is 43.1 µM; in assay [1] (setting [3]), > 50 µM. Besides, the viability in assay [2] (setting [4]) came out at 52.8%. This molecule registered a minimum viability in assay [2] (at 50 µM, stronger effect = lower value) of 40.6%.
As for `CCOc1ccc(CCNC(=O)c2ccc3c(=O)[nH]c4c(C(=O)NC(C)C)sc(=S)n4c3c2)cc1`, in assay [1], the cytotoxic concentration (CC50) is 37.2 µM. The viability in assay [2] (setting [4]) was 93.9%. The molecule also displayed a minimum viability in assay [2] (at 50 µM, stronger effect = lower value) of 45.6%.
Regarding `O=C(Nc1ccc(Oc2ccc(Cl)cc2)c(Cl)c1)c1cc(I)cc(I)c1O`, the 50% cytotoxic concentration (CC50) in assay [1] was 13.6 µM; in assay [1] (setting [3]) it was 25.2 µM. The viability in assay [2] (setting [4]) was 11.8%. The same molecule gave a minimum viability in assay [2] (at 50 µM, stronger effect = lower value) of 10.4%.
For `Cc1ccc(-c2nc(SCC(=O)Nc3ccccc3OC(F)F)c3c(C)c(C(=O)O)sc3n2)cc1` the same measures were 36.4 µM, > 50 µM, 58% and 36.8%.
